Data: patent US9937227B2, “Humanin, analogs and cancer treatment methods and uses thereof” (LOS ANGELES BIOMEDICAL RESEARCH INSTITUTE AT HARBOR-UCLA …, priority 2014, dated 2018)
Peptide text beside a SMILES is read from it.

Tested on: male germ cells
Type: in vivo
Conditions: single IP; HN, HN-S7A, HN-C8P, HN-L12A 40 mg/Kg BW; HNG, HNG-F6A 5 mg/Kg BW; 24 hours
Protocol: For the HN analog experiments, male mice were divided into seven groups (n=4-5 per group) and received one of the following treatments and sacrificed after 24 hours: 1) vehicle (control); 2) a single intra-peritoneal (IP) injection of HN peptide [HN, 40 mg/Kg body weight (BW)]; 3) a single IP injection of CP (CP, 200 mg/Kg BW); 4) IP injection of CP and HN (CP+HN); 5) a single IP injection of each HN analog (HNG 5 mg/Kg BW, HNG-F6A 5 mg/Kg BW, HN-S7A 40 mg/Kg BW, HN-C8P 40 mg/Kg BW, or HN-L12A 40 mg/Kg BW); 6) IP injection of CP and each HN analog (CP+HNG, HNG-F6A, HN-S7A, HN-C8P, or HN-L12A); and 7) IP injection of CP+HN+HN analog (HN-S7A, HN-C8P, or HN-L12A; to assess whether the analogs has enhancing or inhibitory effect on HN).
To facilitate testicular fixation by using a whole-body perfusion technique, all animals were injected with heparin (130 IU/100 g BW, IP) 15 min before a lethal injection of sodium pentobarbital (200 mg/kg BW, IP) (Lue Y H, et al., 1999). One testis was removed and weighed after perfusion with saline. Portions of testicular parenchyma were snap frozen in liquid nitrogen, and stored at −80 C for Western blotting. The other testis was fixed by vascular perfusion with Bouin's solution, and processed with routine paraffin embedding for in situ detection of apoptosis.
Detection of apoptotic cells was performed in Bouin's'-fixed, paraffin-embedded testicular sections by the terminal deoxynucleotidyl transferase (TdT)-mediated deoxy-UTP nick end labeling (TUNEL) technique (Sinha Hikim A P, et al., 1997) using an ApopTag-peroxidase kit (Chemicon International, Inc., Temecula, Calif.). Enumeration of the Sertoli cell nuclei with distinct nucleoli and apoptotic germ cell population was quantified at stages I-IV (early stages), stages VII-VIII (middle stages) and stages XI-XII (late stages) of the seminiferous epithelial cycle using an Olympus BH-2 microscope (New Hyde Park, N.Y.). Stages were identified according to the criteria proposed by Russell et al for paraffin sections (Russell L, 1977). The rate of germ cell apoptosis (apoptotic index, AI) was expressed as the number of apoptotic germ cells per Sertoli cells (Sinha Hikim A P, et al., 1997).

Structure (SMILES)	spontaneous germ cell apoptosis, peptide alone
CC[C@H](C)[C@H](NC(=O)[C@H](CCC(=O)O)NC(=O)[C@H](CO)NC(=O)[C@@H](NC(=O)[C@H](C)NC(=O)[C@H](CC(C)C)NC(=O)[C@H](CC(C)C)NC(=O)[C@H](CC(C)C)NC(=O)[C@H](CS)NC(=O)[C@H](CO)NC(=O)[C@H](Cc1ccccc1)NC(=O)CNC(=O)[C@H](CCCNC(=N)N)NC(=O)[C@@H]1CCCN1C(=O)[C@H](C)NC(=O)[C@@H](N)CCSC)[C@@H](C)O)C(=O)N[C@@H](CC(=O)O)C(=O)N[C@@H](CC(C)C)C(=O)N1CCC[C@H]1C(=O)N[C@H](C(=O)N[C@@H](CCCCN)C(=O)N[C@@H](CCCNC(=N)N)C(=O)N[C@@H](CCCNC(=N)N)C(=O)N[C@@H](C)C(=O)O)C(C)C [HN-L12A] (H-MAPRGFSCLLLATSEIDLPVKRRA-OH; N-terminus and C-terminus assumed)	did not change
CC[C@H](C)[C@H](NC(=O)[C@H](CCC(=O)O)NC(=O)CNC(=O)[C@@H](NC(=O)[C@H](CC(C)C)NC(=O)[C@H](CC(C)C)NC(=O)[C@H](CC(C)C)NC(=O)[C@H](CC(C)C)NC(=O)[C@H](CS)NC(=O)[C@H](CO)NC(=O)[C@H](C)NC(=O)CNC(=O)[C@H](CCCNC(=N)N)NC(=O)[C@@H]1CCCN1C(=O)[C@H](C)NC(=O)[C@@H](N)CCSC)[C@@H](C)O)C(=O)N[C@@H](CC(=O)O)C(=O)N[C@@H](CC(C)C)C(=O)N1CCC[C@H]1C(=O)N[C@H](C(=O)N[C@@H](CCCCN)C(=O)N[C@@H](CCCNC(=N)N)C(=O)N[C@@H](CCCNC(=N)N)C(=O)N[C@@H](C)C(=O)O)C(C)C [HNG-F6A] (H-MAPRGASCLLLLTGEIDLPVKRRA-OH; N-terminus and C-terminus assumed)	did not change
CC[C@H](C)[C@H](NC(=O)[C@H](CCC(=O)O)NC(=O)[C@H](CO)NC(=O)[C@@H](NC(=O)[C@H](CC(C)C)NC(=O)[C@H](CC(C)C)NC(=O)[C@H](CC(C)C)NC(=O)[C@H](CC(C)C)NC(=O)[C@@H]1CCCN1C(=O)[C@H](CO)NC(=O)[C@H](Cc1ccccc1)NC(=O)CNC(=O)[C@H](CCCNC(=N)N)NC(=O)[C@@H]1CCCN1C(=O)[C@H](C)NC(=O)[C@@H](N)CCSC)[C@@H](C)O)C(=O)N[C@@H](CC(=O)O)C(=O)N[C@@H](CC(C)C)C(=O)N1CCC[C@H]1C(=O)N[C@H](C(=O)N[C@@H](CCCCN)C(=O)N[C@@H](CCCNC(=N)N)C(=O)N[C@@H](CCCNC(=N)N)C(=O)N[C@@H](C)C(=O)O)C(C)C [HN-C8P] (H-MAPRGFSPLLLLTSEIDLPVKRRA-OH; N-terminus and C-terminus assumed)	did not change
CC[C@H](C)[C@H](NC(=O)[C@H](CCC(=O)O)NC(=O)[C@H](CO)NC(=O)[C@@H](NC(=O)[C@H](CC(C)C)NC(=O)[C@H](CC(C)C)NC(=O)[C@H](CC(C)C)NC(=O)[C@H](CC(C)C)NC(=O)[C@H](CS)NC(=O)[C@H](C)NC(=O)[C@H](Cc1ccccc1)NC(=O)CNC(=O)[C@H](CCCNC(=N)N)NC(=O)[C@@H]1CCCN1C(=O)[C@H](C)NC(=O)[C@@H](N)CCSC)[C@@H](C)O)C(=O)N[C@@H](CC(=O)O)C(=O)N[C@@H](CC(C)C)C(=O)N1CCC[C@H]1C(=O)N[C@H](C(=O)N[C@@H](CCCCN)C(=O)N[C@@H](CCCNC(=N)N)C(=O)N[C@@H](CCCNC(=N)N)C(=O)N[C@@H](C)C(=O)O)C(C)C [HN-S7A] (H-MAPRGFACLLLLTSEIDLPVKRRA-OH; N-terminus and C-terminus assumed)	did not change
